{"source": "BindingDB's records for doi:10.1021/jm00121a001", "about": "(University of Utah, 1989)", "assay": "Inhibition of compound against Guanine-7-methyl transferase"}
{"smiles": "Nc1nc(O)c2cc(CSC[C@H]3O[C@@H](n4cnc5c(N)ncnc54)[C@H](O)[C@@H]3O)[nH]c2n1", "values": [{"measurement": "Ki", "result": 93, "unit": "µM"}]}
